Like-named read-outs stand apart in the source and are kept apart here. Where a SMILES comes first, the peptide text is derived from it. Where no end group is shown, it is not given here.
Experiments:
[1] = molecular target: T1, Shaker-IR K+ channel (Drosophila melanogaster, UniProt P08510, DEL6-46); assay: Two-electrode voltage clamp on Shaker-IR K+ channel expressed in Xenopus oocytes; format: biochemical; conditions: for IC50: TEVC in Xenopus laevis oocytes, ND96 pH 7.4, 18–22 °C, n ≥ 3 per concentration, read-out: IC50, inhibition of Shaker-IR K+ channel
T1 construct: expressed in transfected cells; host or cells: Xenopus laevis oocytes injected with in-vitro-transcribed cRNA
Method: Electrophysiological experiments were carried out in Xenopus laevis oocytes. Linearized plasmids encoding Shaker-IR, hKv1.1, and hKv1.2 channels were transcribed using the T7 mMESSAGE mMACHINE transcription kit (Ambion, Austin, TX, USA). Mature female animals were purchased from Nasco (Fort Atkinson, WI, USA) and were housed in the Aquatic Facility (KU Leuven) in compliance with the regulations of the European Union (EU) concerning the welfare of laboratory animals as declared in Directive 2010/63/EU. The use of X. laevis oocytes was approved by the Animal Ethics Committee of the KU Leuven with license number P186/2019. Stage V–VI oocytes were collected from anesthetized female X. laevis frogs as previously described, with the frogs anesthetized by placement in 0.1% tricaine solution (amino benzoic acid ethyl ester; Merck, Rahway, NJ, USA). Oocyte microinjection was performed using a microinjector (World Precision Instruments, Sarasota, FL, USA), with a programmed cRNA injection volume of 4–10 nL, depending on the channel subtype. The oocytes were incubated in an MBS solution (88 mM NaCl, 1 mM KCl, 2.5 mM NaHCO3, 1 mM MgSO4, and 5 mM HEPES, pH 7.8) supplemented with 50 mg/L gentamicin sulfate and 90 mg/L theophylline. Electrophysiological measurements were performed at room temperature (18–22 °C) using the two-electrode voltage clamp (TEVC) technique. Data were obtained using a GeneClamp 500 amplifier (Axon Instruments, Burlingame, CA, USA), and Clampex9 software (Axon Instruments, Union City, CA, USA) was used for data acquisition and storage. Glass micropipettes were produced using glass capillaries (borosilicate WPI 1B120-6) and drawn in a WPI (World Precision Instruments, Sarasota, FL, USA) manual stretcher. The bath and perfusion solutions were ND96 (96 mM NaCl, 2 mM KCl, 1.8 mM CaCl2, 2 mM MgCl2, and 5 mM HEPES, pH 7.4). Whole-cell currents of oocytes were recorded 1 to 3 days after injection. Current and voltage electrodes were filled with 3 M KCl, and their resistance was adjusted from 0.5 to 1.5 MΩ. […]

[2] = tested on: mice (male Slc:ICR strain); assay: Mammalian toxicity, intracerebroventricular injection into mice; format: in vivo, mouse; conditions: injection dose 50 nmol/kg, in PBS, male Slc:ICR mice 20 g, three animals, monitored for up to 24 h
Method: (§1) The insecticidal activity was evaluated as previously described. In this study, we used crickets (Acheta domesticus, 45–55 mg), houseflies (Musca domestica, 13–17 mg), silkworms (Bombyx mori, 225–275 mg), and cockroaches (Periplaneta americana, 75–225 mg). Each peptide in distilled water was injected into the abdominal region of insects. As a negative control, distilled water was used. Ten insects were used for each dose, except for doses of 3.1 and 6.3 nmol in LaIT6(R24A), for which 15 and 20 insects were used, respectively. The number of dead insects was counted 48 h after injection (24 h after injection in the case of houseflies). […] Toxicity to mammals was evaluated as previously described. The sample solution in a PBS buffer was injected intracerebroventricularly into mice (male Slc:ICR strain, 20 g) after anesthetizing with isoflurane. As a negative control, PBS buffer was used. Three animals were used for each measurement, and toxic symptoms were monitored for up to 24 h. The experimental protocol was approved by the Ethical Committee for the Welfare of Animals at Kyoto University.

[3] = tested on: crickets (Acheta domesticus); assay: Insecticidal activity against crickets (injection, LD50); format: in vivo; conditions: injection into abdominal region in distilled water; Acheta domesticus 45–55 mg; ten insects per dose; dead insects counted 48 h after injection; brackets = 95% confidence interval
Method: as §1

T1 sequence (P08510 with tags, fused parts or gaps DEL6-46): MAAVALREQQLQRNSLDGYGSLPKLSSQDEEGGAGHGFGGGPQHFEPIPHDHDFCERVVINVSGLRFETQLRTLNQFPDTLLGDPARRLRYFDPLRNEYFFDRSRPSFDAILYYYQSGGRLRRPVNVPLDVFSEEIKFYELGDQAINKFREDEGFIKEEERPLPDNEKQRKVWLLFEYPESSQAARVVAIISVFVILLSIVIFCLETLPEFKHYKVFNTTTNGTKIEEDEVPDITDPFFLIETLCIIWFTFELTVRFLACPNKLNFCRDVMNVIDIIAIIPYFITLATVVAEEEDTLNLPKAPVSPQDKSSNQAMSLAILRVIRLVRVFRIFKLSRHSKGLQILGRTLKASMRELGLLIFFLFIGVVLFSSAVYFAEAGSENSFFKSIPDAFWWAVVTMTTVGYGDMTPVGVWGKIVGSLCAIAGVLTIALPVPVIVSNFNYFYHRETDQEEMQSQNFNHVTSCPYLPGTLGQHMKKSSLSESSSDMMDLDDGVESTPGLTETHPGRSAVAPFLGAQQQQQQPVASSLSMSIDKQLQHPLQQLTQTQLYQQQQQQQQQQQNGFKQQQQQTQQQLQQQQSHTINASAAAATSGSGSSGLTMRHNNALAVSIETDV

In the case of CC[C@H](C)[C@@H]1NC(=O)[C@@H]2CSSC[C@H](NC(=O)[C@@H]3CCCN3C(=O)[C@@H](NC(=O)[C@H](CC(N)=O)NC(=O)[C@@H]3CCCN3C(=O)[C@@H]3CCCN3C(=O)[C@@H](NC(=O)[C@@H](N)CO)C(C)C)[C@@H](C)CC)C(=O)N[C@@H](CCC(N)=O)C(=O)N[C@@H](C(C)C)C(=O)N[C@@H]([C@@H](C)O)C(=O)N[C@@H](CC(N)=O)C(=O)N[C@@H](CCC(N)=O)C(=O)N[C@H]3CSSC[C@H](NC(=O)[C@H](CCCNC(=N)N)NC(=O)CNC(=O)[C@H](CC(N)=O)NC1=O)C(=O)N[C@@H](CCCCN)C(=O)N[C@H](C(=O)N[C@@H](Cc1ccc(O)cc1)C(N)=O)CSSC[C@H](NC(=O)[C@@H]1CCCN1C(=O)[C@H](CCCCN)NC(=O)[C@@H]1CCCN1C3=O)C(=O)N[C@@H](CCCNC(=N)N)C(=O)N[C@@H](CCC(=O)O)C(=O)N[C@@H](C)C(=O)N[C@@H]([C@@H](C)O)C(=O)NCC(=O)N[C@@H](CCCNC(=N)N)C(=O)N1CCC[C@H]1C(=O)N[C@@H](CC(N)=O)C(=O)N[C@@H](CO)C(=O)N[C@@H](C)C(=O)N2 [LaIT6(K28A)] (HELM PEPTIDE1{S.V.P.P.N.I.P.C.Q.V.T.N.Q.C.P.K.P.C.R.E.A.T.G.R.P.N.S.A.C.I.N.G.R.C.K.C.Y.[am]}$PEPTIDE1,PEPTIDE1,8:R3-29:R3|PEPTIDE1,PEPTIDE1,14:R3-34:R3|PEPTIDE1,PEPTIDE1,18:R3-36:R3$$$V2.0), the IC50 ([1]; 95% CI 0.81–6.7 µM) is reported as 2300 nM and the “IC50 on Shaker-IR relative to wild-type LaIT6 (times higher)” value ([1]; ratio of IC50 LaIT6(K28A) to IC50 LaIT6) is reported as “approximately 300 times”.

With CC[C@H](C)[C@@H]1NC(=O)[C@@H]2CSSC[C@H](NC(=O)[C@@H]3CCCN3C(=O)[C@@H](NC(=O)[C@H](CC(N)=O)NC(=O)[C@@H]3CCCN3C(=O)[C@@H]3CCCN3C(=O)[C@@H](NC(=O)[C@@H](N)CO)C(C)C)[C@@H](C)CC)C(=O)N[C@@H](CCC(N)=O)C(=O)N[C@@H](C(C)C)C(=O)N[C@@H]([C@@H](C)O)C(=O)N[C@@H](CC(N)=O)C(=O)N[C@@H](CCC(N)=O)C(=O)N[C@H]3CSSC[C@H](NC(=O)[C@H](CCCNC(=N)N)NC(=O)CNC(=O)[C@H](CC(N)=O)NC1=O)C(=O)N[C@@H](CCCCN)C(=O)N[C@H](C(=O)N[C@@H](Cc1ccc(O)cc1)C(N)=O)CSSC[C@H](NC(=O)[C@@H]1CCCN1C(=O)[C@H](CCCCN)NC(=O)[C@@H]1CCCN1C3=O)C(=O)N[C@@H](CCCNC(=N)N)C(=O)N[C@@H](CCC(=O)O)C(=O)N[C@@H](C)C(=O)N[C@@H]([C@@H](C)O)C(=O)NCC(=O)N[C@@H](CCCNC(=N)N)C(=O)N1CCC[C@H]1C(=O)N[C@@H](CC(N)=O)C(=O)N[C@@H](CO)C(=O)N[C@@H](CCCCN)C(=O)N2 [LaIT6] (HELM PEPTIDE1{S.V.P.P.N.I.P.C.Q.V.T.N.Q.C.P.K.P.C.R.E.A.T.G.R.P.N.S.K.C.I.N.G.R.C.K.C.Y.[am]}$PEPTIDE1,PEPTIDE1,8:R3-29:R3|PEPTIDE1,PEPTIDE1,14:R3-34:R3|PEPTIDE1,PEPTIDE1,18:R3-36:R3$$$V2.0) the “Mammalian toxicity (toxic symptoms) in mice” value [2] was “did not observe any toxic symptoms” and the IC50 ([1]; 95% CI 4.8–14 nM) was 8.2 nM.

For “SVPPNIPCQVTNQCPKPCREATGRPNSKCINGRCKCY-OH (disulfide (positions not given here)) [LaIT6(COOH), LaIT6 analog, C-terminal amide group converted to a carboxyl group]”, the “LD50, insecticidal activity against crickets” value [3] was 19 (14–25) nmol/g.

From paper PMC12542817, “LaIT6: A Novel Insect-Selective K^+-Channel Toxin from Liocheles australasiae Scorpion Venom” (Molecules, 2025)
